From patent US20060281763A1, “Carboxamide inhibitors of TGFbeta” (priority 2005, published 2006)

What follows are compounds tested against T1, TGFβ R1 (Homo sapiens, UniProt P36897) (assay: TGFβ R1 autophosphorylation protocol (33P-ATP, phosphocellulose filter plate)). Settings: 10 uM ATP, 170 nM TGFβ R1, 20 minutes at room temperature, read-out: IC50 for Kinase Inhibition.
T1 sequence (P36897 34-503): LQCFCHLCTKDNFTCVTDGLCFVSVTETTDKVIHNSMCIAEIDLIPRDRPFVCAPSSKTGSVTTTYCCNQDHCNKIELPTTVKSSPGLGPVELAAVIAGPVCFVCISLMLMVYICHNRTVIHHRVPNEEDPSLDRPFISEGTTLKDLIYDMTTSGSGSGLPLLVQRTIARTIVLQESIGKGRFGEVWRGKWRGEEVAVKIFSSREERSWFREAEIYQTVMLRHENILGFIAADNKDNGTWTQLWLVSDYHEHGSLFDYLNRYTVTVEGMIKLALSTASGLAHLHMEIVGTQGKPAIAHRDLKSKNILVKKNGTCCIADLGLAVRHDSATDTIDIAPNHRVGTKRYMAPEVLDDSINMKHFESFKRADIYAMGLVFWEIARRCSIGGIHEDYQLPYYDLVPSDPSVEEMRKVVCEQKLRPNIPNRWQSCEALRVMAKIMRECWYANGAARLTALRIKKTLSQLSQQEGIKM
Format: biochemical
Description: The compounds of the invention were tested for their ability to inhibit TGFβ by a TGFβ R^1 autophosphorylation protocol. This was conducted as follows: Compound dilutions and reagents were prepared fresh daily. Compounds were diluted from DMSO stock solutions to 2 times the desired assay concentration, keeping final DMSO concentration in the assay less than or equal to 1%. TGFβ R1 was diluted to 4 times the desired assay concentration in buffer+DTT. ATP was diluted into 4× reaction buffer, and gamma-^33P-ATP was added at 60 uCi/mL.
The assay was performed by adding 10 ul of the enzyme to 20 ul of the compound solution. The reaction was initiated by the addition of 10 ul of ATP mix. Final assay conditions included 10 uM ATP, 170 nM TGFβ R1, and […] in 20 mM MOPS, pH7. The reactions were incubated at room temperature for 20 minutes. The reactions were stopped by transferring 23 ul of reaction mixture onto a phosphocellulose 96-well filter plate, which had been pre-wetted with 15 ul of 0.25M H3PO4 per well. After 5 minutes, the wells were washed 4× with 75 mM H3PO4 and once with 95% ethanol. The plate was dried, scintillation cocktail was added to each well, and the wells were counted in a Packard TopCount microplate scintillation counter.

Row | IC50 [nM] | Structure (SMILES)
1 | 30 | CNC(=O)c1cnccc1Nc1nc(-c2cc(Cl)ccc2F)ncc1Br [Compound 93, 4-[5-Bromo-2-(5-chloro-2-fluoro-phenyl)-pyrimidin-4-ylamino]-N-methyl-nicotinamide]
2 | 21 | COc1cnc(-c2cc(Cl)ccc2F)nc1Nc1ccncc1C(=O)NCCCNC(C)C [Compound 131, 4-[2-(5-Chloro-2-fluoro-phenyl)-5-methoxy-pyrimidin-4-ylamino]-N-(3-isoopropyl-amino-propyl)-nicotinamide]
3 | 1200 | COc1cnc(-c2cc(Cl)ccc2F)nc1Nc1ccncc1C(=O)NCC(C)C(=O)O (stereo not shown) [Compound 56, 3-({4-[2-(5-Chloro-2-fluoro-phenyl)-5-methoxy-pyrimidin-4-ylamino)-pyridine-3-carbonyl)-amino)-2-methyl-propionic acid]
4 | 140 | COc1cnc(-c2cc(Cl)ccc2F)nc1Nc1ccncc1C(=O)NCCCNCC(F)(F)C(F)(F)F [Compound 101, 4-[2-(5-Chloro-2-fluoro-phenyl)-5-methoxy-pyrimidin-4-ylamino]-N-[3-(2,2,3,3,3-pentafluoro-propylamino)-propyl]-nicotinamide]
5 | 60 | COc1cnc(-c2cc(Cl)ccc2F)nc1Nc1ccncc1C(=O)NC1CCN(C(=O)OC(C)(C)C)CC1 [Compound 8, 4-({4-[2-(5-Chloro-2-fluoro-phenyl)-5-methoxy-pyrimidin-4-ylamino]-pyridine-3-carbonyl}-amino)-piperidine-1-carboxylic acid tert-butyl ester]
6 | 610 | COc1cnc(-c2cc(Cl)ccc2F)nc1Nc1ccncc1C(=O)NCCCNCCC1O[C@H](COCc2ccccc2)[C@@H](OCc2ccccc2)[C@H](OCc2ccccc2)[C@H]1OCc1ccccc1 (stereo partly shown) [Compound 99, 4-[2-(5-Chloro-2-fluoro-phenyl)-5-methoxy-pyrimidin-4-ylamino]-N-{3-[2-(3,4,5-tris-benzyloxy-6-benzyloxymethyl-tetrahydro-pyran-2-yl)-ethylamino]-propyl}-nicotinamide]
7 | 200 | NC(=O)c1cnccc1Nc1nc(-c2cc(Cl)ccc2F)ncc1Cl [Compound 91, 4-[5-Chloro-2-(5-chloro-2-fluoro-phenyl)-pyrimidin-4-ylamino]-nicotinamide]
8 | 10 | CC(C)c1cnc(-c2cc(Cl)ccc2F)nc1Nc1ccncc1C(=O)NC1(CO)CC1 [Compound 150, 4-[2-(5-Chloro-2-fluoro-phenyl)-5-isopropyl-pyrimidin-4-ylamino]-N-(1-hydroxymethyl-cyclopropyl)-nicotinamide]
9 | 8 | COc1cnc(-c2cc(Cl)ccc2F)nc1Nc1ccncc1C(=O)N[C@H]1CCNC1 [Compound 128, 4-[2-(5-Chloro-2-fluoro-phenyl)-5-methoxy-pyrimidin-4-ylamino]-N-pyrrolidin-3-yl-nicotinamide]
10 | 50 | COC[C@H]1OC(CCNCCCNC(=O)c2cnccc2Nc2nc(-c3cc(Cl)ccc3F)ncc2OC)[C@H](OC)[C@@H](OC)[C@H]1OC (stereo partly shown) [Compound 126]
11 | 560 | COc1cnc(-c2cc(Cl)ccc2F)nc1Nc1ccncc1C(=O)NCCNC(=O)OC(C)(C)C [Compound 32, [2-({4-[2-(5-Chloro-2-fluoro-phenyl)-5-methoxy-pyrimidin-4-ylamino]-pyridine-3-carbonyl}-amino)-ethyl]-carbamic acid tert-butyl ester]
12 | 125 | COc1cnc(-c2cc(Cl)ccc2F)nc1Nc1ccncc1C(=O)NCCNC(=O)CC1O[C@H](CO)[C@@H](O)[C@H](O)[C@H]1O (stereo partly shown) [Compound 147, 4-[2-(5-Chloro-2-fluoro-phenyl)-5-methoxy-pyrimidin-4-ylamino]-N-{2-[2-(3,4,5-trihydroxy-6-hydroxymethyl-tetrahydro-pyran-2-yl)-acatylamino]-ethyl}-nicotinamide]
13 | 160 | COc1cnc(-c2cc(Cl)ccc2F)nc1Nc1ccncc1C(=O)NCC(F)(F)F [Compound 37, 4-[2-(5-Chloro-2-fluoro-phenyl)-5-methoxy-pyrimidin-4-ylamino]-N-(2,2,2-trifluoro-ethyl)-nicotinamide]
14 | 100 | COc1cnc(-c2cc(Cl)ccc2F)nc1Nc1ccncc1C(=O)NCC(O)CN (stereo not shown) [Compound 63, N-(3-Amino-2-hydroxy-propyl)-4-[2-(5-chloro-2-fluoro-phenyl)-5-methoxy-pyrimidin-4-ylamino]-nicotinamide]
15 | 590 | COc1cnc(-c2cc(Cl)ccc2F)nc1Nc1ccncc1C(=O)NCCCNC(=O)Nc1ccccc1 [Compound 65, 4-[2-(5-Chloro-2-fluoro-phenyl)-5-methoxy-pyrimidin-4-ylamino]-N-[3-(3-phenyl-ureido)-propyl]-nicotinamide]

Same assay, conditions: 10 uM ATP, 170 nM TGFβ R1, room temperature 20 minutes, read-out: IC50 for Kinase Inhibition

Row | Structure (SMILES) | IC50 [nM]
16 | COc1cnc(-c2cc(Cl)ccc2F)nc1Nc1ccncc1C(=O)NCCNCCOC1O[C@@H](CO)[C@H](O)[C@@H](O)[C@@H]1O (stereo partly shown) [Compound 185] | 9
17 | COc1cnc(-c2cc(Cl)ccc2F)nc1Nc1ccncc1C(=O)N1CC[C@@H](N)C1 [Compound 174, (3-Amino-pyrrolidin-1-yl)-{4-[2-(5-chloro-2-fluoro-phenyl)-5-methoxy-pyrimidin-4-ylamino]-pyridin-3-yl}-methanone] | 1160

Now from value to compound:

Row | IC50 [nM] | Structure (SMILES)
18 | 245 | CC(C)c1cnc(-c2cc(Cl)ccc2F)nc1Nc1cc[n+]([O-])cc1C(=O)NCC(C)(C)O [Compound 196, 4-[2-(5-Chloro-2-fluoro-phenyl)-5-isopropyl-pyrimidin-4-ylamino]-N-(2-hydroxy-2-methyl-propyl)-1-oxy-nicotinamide]
19 | 1780 | COc1cnc(-c2cc(Cl)ccc2F)nc1Nc1ccncc1C(=O)N1CCC[C@@H](O)C1 [Compound 218, {4-[2-(5-Chloro-2-fluoro-phenyl)-5-methoxy-pyrimidin-4-ylamino]-pyridin-3-yl}-(3-hydroxy-piperidin-1-yl)-methanone]
20 | 123 | CC(C)c1cnc(-c2cc(Cl)ccc2F)nc1Nc1ccncc1C(=O)N[C@@H]1CCC[C@H]1O [Compound 236, 4-[2-(5-Chloro-2-fluoro-phenyl)-5-isopropyl-pyrimidin-4-ylamino]-N-(2-hydroxy-cyclopentyl)-nicotinamide]
21 | 2780 | CC(C)c1cnc(-c2cc(Cl)ccc2F)nc1Nc1ccncc1C(=O)N1CCN[C@H](C)C1 [Compound 228, {4-[2-(5-Chloro-2-fluoro-phenyl)-5-isopropyl-pyrimidin-4-ylamino]-pyridin-3-yl}-(3-methyl-piperazin-1-yl)-methanone]
22 | 5 | CC(C)c1cnc(-c2cc(Cl)ccc2F)nc1Nc1ccncc1C(=O)NCCCO [Compound 188, 4-[2-(5-Chloro-2-fluoro-phenyl)-5-isopropyl-pyrimidin-4-ylamino]-N-(3-hydroxy-propyl)-nicotinamide]
23 | 10 | CC(C)c1cnc(-c2cc(Cl)ccc2F)nc1Nc1ccncc1C(=O)NC1C[C@H]1CO (stereo in doubt) [Compound 216, 4-[2-(5-Chloro-2-fluoro-phenyl)-5-isopropyl-pyrimidin-4-ylamino]-N-(2-hydroxymethyl-cyclopropyl)-nicotinamide]
24 | 72 | CC(C)c1cnc(-c2cc(Cl)ccc2F)nc1Nc1ccncc1C(=O)NC[C@H](C)OC(=O)[C@@H](N)C(C)C [Compound 206, 2-Amino-3-methyl-butyric acid 2-({4-[2-(5-chloro-2-fluoro-phenyl)-5-isopropyl-pyrimidin-4-ylamino]-pyridine-3-carbonyl}-amino)-1-methyl-ethyl ester]
25 | 10 | CC(C)c1cnc(-c2cc(Cl)ccc2F)nc1Nc1ccncc1C(=O)NC[C@H](C)OC(=O)[C@@H](C)N [Compound 205, 2-Amino-propionic acid 2-({4-[2-(5-chloro-2-fluoro-phenyl)-5-isopropyl-pyrimidin-4-ylamino]-pyridine-3-carbonyl}-amino)-1-methyl-ethyl ester]
26 | 176 | COc1cnc(-c2cc(Cl)ccc2F)nc1Nc1ccncc1C(=O)N1CCOCC1 [Compound 203, {4-[2-(5-Chloro-2-fluoro-phenyl)-5-methoxy-pyrimidin-4-ylamino]-pyridin-3-yl}-morpholin-4-yl-methanone]
27 | 3080 | CCCN(CCC)C(=O)C(=O)c1cnccc1Nc1nc(-c2cc(Cl)ccc2F)ncc1OC [Compound 240, 2-{4-[2-(5-Chloro-2-fluoro-phenyl)-5-methoxy-pyrimidin-4-ylamino]-pyridin-3-yl}-2-oxo-N,N-dipropyl-acetamide]
28 | 5 | CC(C)c1cnc(-c2cc(Cl)ccc2F)nc1Nc1ccncc1C(=O)NC1C[C@@H]1CO (stereo in doubt) [Compound 215, 4-[2-(5-Chloro-2-fluoro-phenyl)-5-isopropyl-pyrimidin-4-ylamino]-N-(2-hydroxymethyl-cyclopropyl)-nicotinamide]
